Test results: patent publication US9006250B2, “4-amino-6-(heterocyclic)picolinates and 6-amino-2-(heterocyclic)pyrimidine-4-carboxylates and their use as herbicides” (Dow AgroSciences, LLC, priority 2013, dated 2015)

Experiments:
[1] = tested on: ABUTH: velvetleaf (Abutilon theophrasti); assay: Post-Emergent Test II herbicidal activity; type: in vivo; settings: post-emergence, 336 h, 14 days, read-out: Visual Growth Reduction (%) 14 Days After Application ABUTH; for pest or weed control at 35 g/ha: 35 g ai/ha; for pest or weed control at 70 g/ha: 70 g ai/ha; for pest or weed control at 140 g/ha: 140 g ai/ha
Summary of the method: (§1)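 Test species are sprayed post-emergence when they reach the first or second true leaf, using an aqueous acetone/DMSO spray with crop oil and surfactant delivered at 187 L/ha. Plants are kept in the greenhouse with subirrigation, and damage compared with untreated plants is rated visually at 14 d on a 0-100% scale.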

[2] = tested on: ORYSA: rice (Oryza sativa); assay: Post-Emergent Test II herbicidal activity; type: in vivo; settings: post-emergence, 336 h, 14 days, read-out: Visual Growth Reduction (%) 14 Days After Application ORYSA; for pest or weed control at 35 g/ha: 35 g ai/ha; for pest or weed control at 70 g/ha: 70 g ai/ha; for pest or weed control at 140 g/ha: 140 g ai/ha
Summary of the method: as §1

[3] = tested on: BRSNN: oilseed rape, canola (Brassica napus); assay: Post-Emergent Test II herbicidal activity; type: in vivo; settings: post-emergence, 336 h, 14 days, read-out: Visual Growth Reduction (%) 14 Days After Application BRSNN; for pest or weed control at 35 g/ha: 35 g ai/ha; for pest or weed control at 70 g/ha: 70 g ai/ha; for pest or weed control at 140 g/ha: 140 g ai/ha
Summary of the method: as §1

[4] = tested on: EPHHL: wild poinsettia (Euphorbia heterophylla); assay: Post-Emergent Test II herbicidal activity; type: in vivo; settings: post-emergence, 336 h, 14 days, read-out: Visual Growth Reduction (%) 14 Days After Application EPHHL; for pest or weed control at 35 g/ha: 35 g ai/ha; for pest or weed control at 70 g/ha: 70 g ai/ha; for pest or weed control at 140 g/ha: 140 g ai/ha
Summary of the method: as §1

[5] = tested on: CHEAL: lambsquarters (Chenopodium album); assay: Post-Emergent Test II herbicidal activity; type: in vivo; settings: post-emergence, 336 h, 14 days, read-out: Visual Growth Reduction (%) 14 Days After Application CHEAL; for pest or weed control at 35 g/ha: 35 g ai/ha; for pest or weed control at 70 g/ha: 70 g ai/ha; for pest or weed control at 140 g/ha: 140 g ai/ha
Summary of the method: as §1

[6] = tested on: AMARE: redroot pigweed (Amaranthus retroflexus); assay: Post-Emergent Test II herbicidal activity; type: in vivo; settings: post-emergence, 336 h, 14 days, read-out: Visual Growth Reduction (%) 14 Days After Application AMARE; for pest or weed control at 35 g/ha: 35 g ai/ha; for pest or weed control at 70 g/ha: 70 g ai/ha; for pest or weed control at 140 g/ha: 140 g ai/ha
Summary of the method: as §1

[7] = tested on: TRZAS: wheat, spring (Triticum aestivum); assay: Post-Emergent Test II herbicidal activity; type: in vivo; settings: post-emergence, 336 h, 14 days, read-out: Visual Growth Reduction (%) 14 Days After Application TRZAS; for pest or weed control at 35 g/ha: 35 g ai/ha; for pest or weed control at 70 g/ha: 70 g ai/ha; for pest or weed control at 140 g/ha: 140 g ai/ha
Summary of the method: as §1

[8] = tested on: HELAN: sunflower (Helianthus annuus); assay: Post-Emergent Test II herbicidal activity; type: in vivo; settings: post-emergence, 336 h, 14 days, read-out: Visual Growth Reduction (%) 14 Days After Application HELAN; for pest or weed control at 35 g/ha: 35 g ai/ha; for pest or weed control at 70 g/ha: 70 g ai/ha; for pest or weed control at 140 g/ha: 140 g ai/ha
Summary of the method: as §1

[9] = tested on: SETFA: giant foxtail (Setaria faberi); assay: Post-Emergent Test II herbicidal activity; type: in vivo; settings: post-emergence, 336 h, 14 days, read-out: Visual Growth Reduction (%) 14 Days After Application SETFA; for pest or weed control at 35 g/ha: 35 g ai/ha; for pest or weed control at 70 g/ha: 70 g ai/ha; for pest or weed control at 140 g/ha: 140 g ai/ha
Summary of the method: as §1

[10] = tested on: ZEAMX: maize, corn (Zea mays); assay: Post-Emergent Test II herbicidal activity; type: in vivo; settings: post-emergence, 336 h, 14 days, read-out: Visual Growth Reduction (%) 14 Days After Application ZEAMX; for pest or weed control at 35 g/ha: 35 g ai/ha; for pest or weed control at 70 g/ha: 70 g ai/ha; for pest or weed control at 140 g/ha: 140 g ai/ha
Summary of the method: as §1

[11] = tested on: ECHCG: barnyardgrass (Echinochloa crus-galli); assay: Post-Emergent Test II herbicidal activity; type: in vivo; settings: post-emergence, 336 h, 14 days, read-out: Visual Growth Reduction (%) 14 Days After Application ECHCG; for pest or weed control at 35 g/ha: 35 g ai/ha; for pest or weed control at 70 g/ha: 70 g ai/ha; for pest or weed control at 140 g/ha: 140 g ai/ha
Summary of the method: as §1

[12] = tested on: CYPES: yellow nutsedge (Cyperus esculentus); assay: Post-Emergent Test II herbicidal activity; type: in vivo; settings: post-emergence, 336 h, 14 days, read-out: Visual Growth Reduction (%) 14 Days After Application CYPES; for pest or weed control at 35 g/ha: 35 g ai/ha; for pest or weed control at 70 g/ha: 70 g ai/ha; for pest or weed control at 140 g/ha: 140 g ai/ha
Summary of the method: as §1

Row | SMILES | pest or weed control at 35 g/ha [1] [%] | pest or weed control at 70 g/ha [1] [%] | pest or weed control at 140 g/ha [1] [%] | pest or weed control at 35 g/ha [2] [%] | pest or weed control at 70 g/ha [2] [%] | pest or weed control at 140 g/ha [2] [%] | pest or weed control at 35 g/ha [3] [%] | pest or weed control at 70 g/ha [3] [%] | pest or weed control at 140 g/ha [3] [%] | pest or weed control at 35 g/ha [4] [%] | pest or weed control at 70 g/ha [4] [%] | pest or weed control at 140 g/ha [4] [%] | pest or weed control at 35 g/ha [5] [%] | pest or weed control at 70 g/ha [5] [%] | pest or weed control at 140 g/ha [5] [%] | pest or weed control at 35 g/ha [6] [%] | pest or weed control at 70 g/ha [6] [%] | pest or weed control at 140 g/ha [6] [%] | pest or weed control at 35 g/ha [7] [%] | pest or weed control at 70 g/ha [7] [%] | further results
1 | COC(=O)c1nc(-c2ccc3nsnc3c2)c(F)c(N)c1Cl [Compound 11] | 85 to 94 | 95 to 100 | 95 to 100 | 0 to 29 | 0 to 29 | 0 to 29 | 60 to 74 | 75 to 84 | 75 to 84 | 95 to 100 | 95 to 100 | 95 to 100 | 85 to 94 | 95 to 100 | 95 to 100 | 95 to 100 | 95 to 100 | 95 to 100 | 0 to 29 | 0 to 29 | pest or weed control at 140 g/ha [7]: 0 to 29%; pest or weed control at 35 g/ha [8]: 85 to 94%; pest or weed control at 70 g/ha [8]: 85 to 94%; pest or weed control at 140 g/ha [8]: 95 to 100%; pest or weed control at 35 g/ha [9]: 45 to 59%; pest or weed control at 70 g/ha [9]: 85 to 94%; pest or weed control at 140 g/ha [9]: 85 to 94%; pest or weed control at 35 g/ha [10]: 60 to 74%; pest or weed control at 70 g/ha [10]: 60 to 74%; pest or weed control at 140 g/ha [10]: 75 to 84%; pest or weed control at 35 g/ha [11]: 85 to 94%; pest or weed control at 70 g/ha [11]: 95 to 100%; pest or weed control at 140 g/ha [11]: 95 to 100%; pest or weed control at 35 g/ha [12]: 95 to 100%; pest or weed control at 70 g/ha [12]: 95 to 100%; pest or weed control at 140 g/ha [12]: 95 to 100%; melting point: 196 to 198 °C
2 | COC(=O)c1nc(-c2cc3nsnc3cc2F)cc(N)c1Cl [Compound 13] | 75 to 84 | 85 to 94 | 85 to 94 | 0 to 29 | 30 to 44 | 30 to 44 | 95 to 100 | 95 to 100 | 95 to 100 | 95 to 100 | 95 to 100 | 95 to 100 | 85 to 94 | 95 to 100 | 95 to 100 | 95 to 100 | 95 to 100 | 95 to 100 | 0 to 29 | 0 to 29 | pest or weed control at 140 g/ha [7]: 0 to 29%; pest or weed control at 35 g/ha [8]: 30 to 44%; pest or weed control at 70 g/ha [8]: 60 to 74%; pest or weed control at 140 g/ha [8]: 75 to 84%; pest or weed control at 35 g/ha [9]: 60 to 74%; pest or weed control at 70 g/ha [9]: 60 to 74%; pest or weed control at 140 g/ha [9]: 85 to 94%; pest or weed control at 35 g/ha [10]: 60 to 74%; pest or weed control at 70 g/ha [10]: 75 to 84%; pest or weed control at 140 g/ha [10]: 85 to 94%; pest or weed control at 35 g/ha [11]: 75 to 84%; pest or weed control at 70 g/ha [11]: 85 to 94%; pest or weed control at 140 g/ha [11]: 85 to 94%; pest or weed control at 35 g/ha [12]: 0 to 29%; pest or weed control at 70 g/ha [12]: 0 to 29%; pest or weed control at 140 g/ha [12]: 30 to 44%; melting point: 218 to 220 °C
3 | COC(=O)c1nc(-c2ccc3nonc3c2C)cc(N)c1Cl [Compound 17] | 0 to 29 | 45 to 59 | 60 to 74 | 0 to 29 | 0 to 29 | 0 to 29 | 60 to 74 | 75 to 84 | 85 to 94 | 0 to 29 | 0 to 29 | 0 to 29 | 85 to 94 | 95 to 100 | 95 to 100 | 95 to 100 | 95 to 100 | 95 to 100 | 0 to 29 | 0 to 29 | pest or weed control at 140 g/ha [7]: 30 to 44%; pest or weed control at 35 g/ha [8]: 0 to 29%; pest or weed control at 70 g/ha [8]: 45 to 59%; pest or weed control at 140 g/ha [8]: 60 to 74%; pest or weed control at 35 g/ha [9]: 0 to 29%; pest or weed control at 70 g/ha [9]: 0 to 29%; pest or weed control at 140 g/ha [9]: 0 to 29%; pest or weed control at 35 g/ha [10]: 0 to 29%; pest or weed control at 70 g/ha [10]: 0 to 29%; pest or weed control at 140 g/ha [10]: 0 to 29%; pest or weed control at 35 g/ha [11]: 0 to 29%; pest or weed control at 70 g/ha [11]: 0 to 29%; pest or weed control at 140 g/ha [11]: 0 to 29%; pest or weed control at 35 g/ha [12]: 60 to 74%; pest or weed control at 70 g/ha [12]: 60 to 74%; pest or weed control at 140 g/ha [12]: 75 to 84%; melting point: 182 to 185 °C
